Source: the NIST ThermoML archive (doi:10.1016/j.jct.2018.08.013)
Several values for one entry are separate records, joined by “and”; a condition that tells them apart may be missing. Equal values may be shown once. ± gives the expanded uncertainty stated by the source.

How the values were obtained:
[1] = specific heat capacity at constant pressure; xn = mol fraction of the nth substance listed; conditions: 100 kPa, Crystal of intercomponent compound 1, x2 = 0.477
[2] = xn = mol fraction of the nth substance listed; conditions: 298 K; 100 kPa; Crystal of intercomponent compound 1; X-ray diffraction; x2 = 0.477

[Se] [selenium] + [In]
[1]
Conditions	specific heat capacity
10.11 K, relaxation calorimetry	10.21 ± 1.2 J/K/kg and 10.22 ± 1.2 J/K/kg and 10.23 ± 1.2 J/K/kg
12.12 K, relaxation calorimetry	16.85 ± 1.6 J/K/kg and 16.83 ± 1.6 J/K/kg
12.14 K, relaxation calorimetry	16.97 ± 1.6 J/K/kg
14.13 K, relaxation calorimetry	24.44 ± 1.8 J/K/kg
14.15 K, relaxation calorimetry	24.49 ± 1.8 J/K/kg
16.15 K, relaxation calorimetry	32.56 ± 2.1 J/K/kg and 32.49 ± 2.1 J/K/kg
16.16 K, relaxation calorimetry	32.62 ± 2.1 J/K/kg
18.17 K, relaxation calorimetry	40.89 ± 2.3 J/K/kg and 40.88 ± 2.3 J/K/kg
18.18 K, relaxation calorimetry	40.87 ± 2.3 J/K/kg
20.18 K, relaxation calorimetry	49.24 ± 2.6 J/K/kg
20.19 K, relaxation calorimetry	49.1 ± 2.6 J/K/kg and 49.16 ± 2.6 J/K/kg
22.2 K, relaxation calorimetry	57.18 ± 2.8 J/K/kg and 57.13 ± 2.8 J/K/kg
22.21 K, relaxation calorimetry	56.97 ± 2.8 J/K/kg
24.22 K, relaxation calorimetry	65.02 ± 3 J/K/kg and 64.97 ± 3 J/K/kg
24.23 K, relaxation calorimetry	64.87 ± 3 J/K/kg
26.24 K, relaxation calorimetry	72.45 ± 3.3 J/K/kg and 72.56 ± 3.3 J/K/kg
28.25 K, relaxation calorimetry	79.57 ± 3.5 J/K/kg
30.27 K, relaxation calorimetry	86.33 ± 3.8 J/K/kg and 86.39 ± 3.8 J/K/kg
32.78 K, relaxation calorimetry	94.54 ± 4.1 J/K/kg
32.79 K, relaxation calorimetry	94.59 ± 4.1 J/K/kg
35.31 K, relaxation calorimetry	102.49 ± 4.3 J/K/kg and 102.64 ± 4.3 J/K/kg
37.81 K, relaxation calorimetry	109.66 ± 4.6 J/K/kg
37.82 K, relaxation calorimetry	109.87 ± 4.6 J/K/kg
40.34 K, relaxation calorimetry	117.25 ± 4.9 J/K/kg
40.35 K, relaxation calorimetry	116.73 ± 4.9 J/K/kg and 116.68 ± 4.9 J/K/kg
42.86 K, relaxation calorimetry	123.23 ± 5.1 J/K/kg
42.87 K, relaxation calorimetry	122.77 ± 5.1 J/K/kg
45.38 K, relaxation calorimetry	129.63 ± 5.4 J/K/kg
45.39 K, relaxation calorimetry	129.32 ± 5.4 J/K/kg
45.4 K, relaxation calorimetry	129.27 ± 5.4 J/K/kg
47.9 K, relaxation calorimetry	135.36 ± 5.6 J/K/kg
47.91 K, relaxation calorimetry	134.84 ± 5.6 J/K/kg
50.41 K, relaxation calorimetry	141.5 ± 5.8 J/K/kg
50.42 K, relaxation calorimetry	140.88 ± 5.8 J/K/kg
50.44 K, relaxation calorimetry	140.73 ± 5.8 J/K/kg
52.93 K, relaxation calorimetry	146.09 ± 6 J/K/kg
52.95 K, relaxation calorimetry	145.42 ± 6 J/K/kg
55.43 K, relaxation calorimetry	151.41 ± 6.2 J/K/kg
55.46 K, relaxation calorimetry	150.74 ± 6.2 J/K/kg
55.48 K, relaxation calorimetry	150.63 ± 6.2 J/K/kg
57.97 K, relaxation calorimetry	155.28 ± 6.3 J/K/kg
57.99 K, relaxation calorimetry	154.81 ± 6.3 J/K/kg
60.46 K, relaxation calorimetry	160.13 ± 6.6 J/K/kg
60.49 K, relaxation calorimetry	159.41 ± 6.5 J/K/kg
60.52 K, relaxation calorimetry	159.25 ± 6.5 J/K/kg
63.01 K, relaxation calorimetry	163.79 ± 6.7 J/K/kg
63.04 K, relaxation calorimetry	162.97 ± 6.7 J/K/kg
65.49 K, relaxation calorimetry	168.85 ± 6.9 J/K/kg
65.53 K, relaxation calorimetry	167.77 ± 6.9 J/K/kg
65.57 K, relaxation calorimetry	167.3 ± 6.8 J/K/kg
68.05 K, relaxation calorimetry	171.53 ± 7 J/K/kg
68.08 K, relaxation calorimetry	170.97 ± 7 J/K/kg
70.52 K, relaxation calorimetry	176.23 ± 7.2 J/K/kg
70.56 K, relaxation calorimetry	175.25 ± 7.1 J/K/kg
70.63 K, relaxation calorimetry	173.96 ± 7.1 J/K/kg
73.05 K, relaxation calorimetry	178.14 ± 7.3 J/K/kg
73.09 K, relaxation calorimetry	177.31 ± 7.2 J/K/kg
75.56 K, relaxation calorimetry	182.68 ± 7.4 J/K/kg
75.6 K, relaxation calorimetry	181.49 ± 7.4 J/K/kg
75.67 K, relaxation calorimetry	180.82 ± 7.4 J/K/kg
78.13 K, relaxation calorimetry	184.75 ± 7.5 J/K/kg
78.16 K, relaxation calorimetry	183.82 ± 7.5 J/K/kg
80.57 K, relaxation calorimetry	189.39 ± 7.7 J/K/kg
80.65 K, relaxation calorimetry	187.95 ± 7.6 J/K/kg
80.71 K, relaxation calorimetry	187.02 ± 7.6 J/K/kg
83.17 K, relaxation calorimetry	190.47 ± 7.7 J/K/kg
83.2 K, relaxation calorimetry	189.7 ± 7.7 J/K/kg
85.61 K, relaxation calorimetry	194.76 ± 7.9 J/K/kg
85.69 K, relaxation calorimetry	193.42 ± 7.9 J/K/kg
85.74 K, relaxation calorimetry	192.69 ± 7.8 J/K/kg
88.19 K, relaxation calorimetry	195.84 ± 8 J/K/kg
88.24 K, relaxation calorimetry	194.76 ± 7.9 J/K/kg
90.63 K, relaxation calorimetry	200.23 ± 8.2 J/K/kg
90.71 K, relaxation calorimetry	198.78 ± 8.1 J/K/kg
90.78 K, relaxation calorimetry	197.54 ± 8.1 J/K/kg
93.18 K, relaxation calorimetry	200.64 ± 8.2 J/K/kg
93.24 K, relaxation calorimetry	199.45 ± 8.1 J/K/kg
95.65 K, relaxation calorimetry	204.05 ± 8.3 J/K/kg
95.74 K, relaxation calorimetry	202.39 ± 8.2 J/K/kg
95.83 K, relaxation calorimetry	201.41 ± 8.2 J/K/kg
98.2 K, relaxation calorimetry	204.15 ± 8.3 J/K/kg
98.3 K, relaxation calorimetry	202.34 ± 8.2 J/K/kg
100.79 K, relaxation calorimetry	205.8 ± 8.4 J/K/kg
100.83 K, relaxation calorimetry	205.34 ± 8.4 J/K/kg
100.91 K, relaxation calorimetry	207.4 ± 8.4 J/K/kg
101.79 K, relaxation calorimetry	206.37 ± 8.4 J/K/kg
101.88 K, relaxation calorimetry	205.18 ± 8.4 J/K/kg
105.84 K, relaxation calorimetry	208.74 ± 8.5 J/K/kg
105.86 K, relaxation calorimetry	208.07 ± 8.5 J/K/kg
109.83 K, relaxation calorimetry	211.27 ± 8.6 J/K/kg
109.93 K, relaxation calorimetry	209.1 ± 8.5 J/K/kg
113.88 K, relaxation calorimetry	213.59 ± 8.7 J/K/kg
113.93 K, relaxation calorimetry	212.1 ± 8.6 J/K/kg
117.9 K, relaxation calorimetry	215.3 ± 8.8 J/K/kg
117.98 K, relaxation calorimetry	213.08 ± 8.7 J/K/kg
121.94 K, relaxation calorimetry	217.67 ± 8.8 J/K/kg
121.97 K, relaxation calorimetry	216.38 ± 8.8 J/K/kg
125.98 K, relaxation calorimetry	218.34 ± 8.9 J/K/kg and 218.39 ± 8.9 J/K/kg
130 K, relaxation calorimetry	220.35 ± 9 J/K/kg
130.01 K, relaxation calorimetry	220.87 ± 9 J/K/kg
133.92 K, relaxation calorimetry	223.14 ± 9.1 J/K/kg
134.04 K, relaxation calorimetry	219.79 ± 8.9 J/K/kg
138.04 K, relaxation calorimetry	223.76 ± 9.1 J/K/kg
138.07 K, relaxation calorimetry	223.97 ± 9.1 J/K/kg
141.97 K, relaxation calorimetry	225.82 ± 9.2 J/K/kg
142.1 K, relaxation calorimetry	222.52 ± 9 J/K/kg
146.07 K, relaxation calorimetry	227.01 ± 9.2 J/K/kg
146.14 K, relaxation calorimetry	226.7 ± 9.2 J/K/kg
150.02 K, relaxation calorimetry	228.71 ± 9.3 J/K/kg
150.14 K, relaxation calorimetry	225.72 ± 9.2 J/K/kg
154.13 K, relaxation calorimetry	230.11 ± 9.3 J/K/kg
154.16 K, relaxation calorimetry	229.02 ± 9.3 J/K/kg
162.19 K, relaxation calorimetry	232.33 ± 9.4 J/K/kg
162.21 K, relaxation calorimetry	231.34 ± 9.4 J/K/kg
170.26 K, relaxation calorimetry	233.51 ± 9.5 J/K/kg
170.28 K, relaxation calorimetry	234.13 ± 9.5 J/K/kg
178.32 K, relaxation calorimetry	235.16 ± 9.5 J/K/kg
178.34 K, relaxation calorimetry	235.63 ± 9.5 J/K/kg
186.37 K, relaxation calorimetry	236.76 ± 9.6 J/K/kg
186.4 K, relaxation calorimetry	237.23 ± 9.7 J/K/kg
194.4 K, relaxation calorimetry	238 ± 9.7 J/K/kg
194.45 K, relaxation calorimetry	238.31 ± 9.7 J/K/kg
202.42 K, relaxation calorimetry	239.96 ± 9.8 J/K/kg
202.5 K, relaxation calorimetry	239.65 ± 9.8 J/K/kg
210.44 K, relaxation calorimetry	241.2 ± 9.8 J/K/kg
210.53 K, relaxation calorimetry	241.05 ± 9.8 J/K/kg
218.46 K, relaxation calorimetry	241.51 ± 9.8 J/K/kg
218.55 K, relaxation calorimetry	241.2 ± 9.8 J/K/kg
226.5 K, relaxation calorimetry	242.85 ± 9.9 J/K/kg
226.59 K, relaxation calorimetry	242.65 ± 9.9 J/K/kg
234.52 K, relaxation calorimetry	243.63 ± 9.9 J/K/kg
234.63 K, relaxation calorimetry	243.37 ± 9.9 J/K/kg
242.56 K, relaxation calorimetry	244.4 ± 9.9 J/K/kg
242.67 K, relaxation calorimetry	244.04 ± 9.9 J/K/kg
250.6 K, relaxation calorimetry	245.28 ± 10 J/K/kg
250.71 K, relaxation calorimetry	245.12 ± 10 J/K/kg
255.57 K, relaxation calorimetry	245.59 ± 10 J/K/kg
255.58 K, relaxation calorimetry	246.52 ± 10 J/K/kg
258.63 K, relaxation calorimetry	245.95 ± 10 J/K/kg
258.74 K, relaxation calorimetry	245.79 ± 10 J/K/kg
264.04 K, relaxation calorimetry	247.24 ± 10 J/K/kg
264.08 K, relaxation calorimetry	246.1 ± 10 J/K/kg
265.74 K, Extra sensitive DSC	248.37 ± 9.6 J/K/kg
266.66 K, relaxation calorimetry	246.62 ± 10 J/K/kg
266.77 K, relaxation calorimetry	246.57 ± 10 J/K/kg
270 K, Extra sensitive DSC	248.48 ± 9.6 J/K/kg
272.24 K, relaxation calorimetry	248.48 ± 10 J/K/kg
272.34 K, relaxation calorimetry	248.43 ± 10 J/K/kg
274.69 K, relaxation calorimetry	247.7 ± 10 J/K/kg
274.81 K, relaxation calorimetry	247.7 ± 10 J/K/kg
275 K, Extra sensitive DSC	248.79 ± 9.7 J/K/kg
280 K, Extra sensitive DSC	249.1 ± 9.7 J/K/kg
280.72 K, relaxation calorimetry	249.15 ± 10 J/K/kg
280.84 K, relaxation calorimetry	248.06 ± 10 J/K/kg
282.72 K, relaxation calorimetry	248.48 ± 10 J/K/kg
282.83 K, relaxation calorimetry	248.37 ± 10 J/K/kg
285 K, Extra sensitive DSC	249.51 ± 9.7 J/K/kg
288.98 K, relaxation calorimetry	249.72 ± 10 J/K/kg
289.06 K, relaxation calorimetry	248.53 ± 10 J/K/kg
290 K, Extra sensitive DSC	249.92 ± 9.7 J/K/kg
290.72 K, relaxation calorimetry	248.79 ± 10 J/K/kg
290.85 K, relaxation calorimetry	248.94 ± 10 J/K/kg
294.72 K, relaxation calorimetry	248.58 ± 10 J/K/kg
294.84 K, relaxation calorimetry	249.25 ± 10 J/K/kg
295 K, Extra sensitive DSC	250.03 ± 9.7 J/K/kg
297.48 K, relaxation calorimetry	249.25 ± 10 J/K/kg
297.56 K, relaxation calorimetry	248.74 ± 10 J/K/kg
298.75 K, relaxation calorimetry	248.74 ± 10 J/K/kg
298.86 K, relaxation calorimetry	250.59 ± 10 J/K/kg
300 K, Extra sensitive DSC	250.18 ± 9.7 J/K/kg
303.85 K, relaxation calorimetry	252.19 ± 10 J/K/kg
303.86 K, relaxation calorimetry	252.14 ± 10 J/K/kg
305 K, Extra sensitive DSC	250.39 ± 9.7 J/K/kg
305.75 K, relaxation calorimetry	251.52 ± 10 J/K/kg
305.8 K, relaxation calorimetry	251.11 ± 10 J/K/kg
306.87 K, relaxation calorimetry	252.97 ± 10 J/K/kg and 252.76 ± 10 J/K/kg
310 K, Extra sensitive DSC	251.42 ± 9.8 J/K/kg
315 K, Extra sensitive DSC	252.09 ± 9.8 J/K/kg
320 K, Extra sensitive DSC	251.78 ± 9.8 J/K/kg
325 K, Extra sensitive DSC	252.3 ± 9.8 J/K/kg
330 K, Extra sensitive DSC	253.12 ± 9.8 J/K/kg
335 K, Extra sensitive DSC	254.52 ± 9.9 J/K/kg
340 K, Extra sensitive DSC	254.88 ± 9.9 J/K/kg
345 K, Extra sensitive DSC	255.7 ± 9.9 J/K/kg
350 K, Extra sensitive DSC	256.89 ± 10 J/K/kg
355 K, Extra sensitive DSC	257.82 ± 10 J/K/kg
357.87 K, Extra sensitive DSC	258.59 ± 10 J/K/kg

Conditions	mass density [kg/m3]
[2]	5546 ± 59
